Assay results from paper PMC9228270, “Design, Synthesis, In Silico Studies and Inhibitory Activity towards Bcr-Abl, BTK and FLT3-ITD of New 2,6,9-Trisubstituted Purine Derivatives as Potential Agents for the Treatment of Leukaemia” (Pharmaceutics, 2022).
Where “and” joins values, the source holds several entries; their conditions need not be identical. Equal values may be shown once. Read-outs that look alike come from different tables or passages of the source.

Columns and labels:
BTK = molecular target: T1, BTK (Homo sapiens, UniProt Q06187); assay: Recombinant kinase radioassay, BTK; assay type: biochemical
T1 construct: purchased ProQinase
T1 sequence (Q06187 whole entry): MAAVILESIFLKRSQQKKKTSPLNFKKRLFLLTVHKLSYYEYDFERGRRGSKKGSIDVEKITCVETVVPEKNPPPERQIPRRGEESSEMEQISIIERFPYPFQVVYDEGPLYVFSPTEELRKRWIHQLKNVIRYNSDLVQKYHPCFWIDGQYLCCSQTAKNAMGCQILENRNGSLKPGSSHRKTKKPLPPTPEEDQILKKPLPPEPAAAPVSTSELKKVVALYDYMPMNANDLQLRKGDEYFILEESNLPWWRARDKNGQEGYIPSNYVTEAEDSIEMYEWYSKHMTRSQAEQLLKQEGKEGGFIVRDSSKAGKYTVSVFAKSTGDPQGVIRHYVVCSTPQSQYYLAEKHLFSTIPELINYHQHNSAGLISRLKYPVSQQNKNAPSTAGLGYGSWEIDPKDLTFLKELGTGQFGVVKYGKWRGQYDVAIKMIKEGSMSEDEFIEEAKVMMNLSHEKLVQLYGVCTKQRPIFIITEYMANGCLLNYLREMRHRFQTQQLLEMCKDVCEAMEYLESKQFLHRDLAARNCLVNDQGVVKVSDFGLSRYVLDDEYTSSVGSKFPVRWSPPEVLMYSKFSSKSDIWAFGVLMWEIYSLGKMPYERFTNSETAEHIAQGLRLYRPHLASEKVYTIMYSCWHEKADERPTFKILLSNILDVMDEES
Protocol: (§1) Recombinant kinase inhibition was measured using standard radioassay. Bcr-Abl1 and Cdk-2/cyclin E kinases were produced in-house, FLT3-ITD and BTK were purchased from ProQinase. The kinases were assayed with suitable substrates (500 µM peptide […] for Abl, 1 mg/mL histone H1 for Cdk-2, 100 µM poly (Glu:Tyr; 4:1)) in the presence of ATP (1 µM for Bcr-Abl, 15 µM for Cdk-2 and BTK), 0.05 µCi [γ-^33P]ATP and the test compound in reaction buffer (60 mM HEPES-NaOH, pH 7.5, 3 mM MgCl2, 3 mM MnCl2, 3 µM Na orthovanadate, 1.2 mM DTT, 2.5 µg/50 µL PEG20.000). The reactions were stopped by adding 3% aq. H3PO4. P-81 phosphocellulose (Whatman) was used to separate phosphorylated substrates. Kinase activity was quantified using a FLA-7000 digital image analyser.

CEM = assay: Cytotoxicity assay (resazurin), CEM; assay type: cell-based; details: Homo sapiens, CCRF-CEM, 72 h, three independent experiments, range 0.1 to 25 µM
Protocol: (§2) Cytotoxicity assays for the purines were quantified using the resazurin method, a dye to measure redox reactions occurring in the mitochondria of live cells. The cells were treated by tested compounds (in triplicate, six different doses) for 72 h.

HL-60 = assay: Cytotoxicity assay (resazurin), HL-60; assay type: cell-based; details: Homo sapiens, 72 h, three independent experiments, range 0.1 to 25 µM
Protocol: as §2

Bcr-Abl1 = Bcr-Abl1 (Homo sapiens, UniProt P00519); assay: Recombinant kinase radioassay, Abl; assay type: biochemical; details: ATP 1 µM, at least three independent experiments, range 0.01–100 µM
Sequence of Bcr-Abl1 (P00519 27-1130): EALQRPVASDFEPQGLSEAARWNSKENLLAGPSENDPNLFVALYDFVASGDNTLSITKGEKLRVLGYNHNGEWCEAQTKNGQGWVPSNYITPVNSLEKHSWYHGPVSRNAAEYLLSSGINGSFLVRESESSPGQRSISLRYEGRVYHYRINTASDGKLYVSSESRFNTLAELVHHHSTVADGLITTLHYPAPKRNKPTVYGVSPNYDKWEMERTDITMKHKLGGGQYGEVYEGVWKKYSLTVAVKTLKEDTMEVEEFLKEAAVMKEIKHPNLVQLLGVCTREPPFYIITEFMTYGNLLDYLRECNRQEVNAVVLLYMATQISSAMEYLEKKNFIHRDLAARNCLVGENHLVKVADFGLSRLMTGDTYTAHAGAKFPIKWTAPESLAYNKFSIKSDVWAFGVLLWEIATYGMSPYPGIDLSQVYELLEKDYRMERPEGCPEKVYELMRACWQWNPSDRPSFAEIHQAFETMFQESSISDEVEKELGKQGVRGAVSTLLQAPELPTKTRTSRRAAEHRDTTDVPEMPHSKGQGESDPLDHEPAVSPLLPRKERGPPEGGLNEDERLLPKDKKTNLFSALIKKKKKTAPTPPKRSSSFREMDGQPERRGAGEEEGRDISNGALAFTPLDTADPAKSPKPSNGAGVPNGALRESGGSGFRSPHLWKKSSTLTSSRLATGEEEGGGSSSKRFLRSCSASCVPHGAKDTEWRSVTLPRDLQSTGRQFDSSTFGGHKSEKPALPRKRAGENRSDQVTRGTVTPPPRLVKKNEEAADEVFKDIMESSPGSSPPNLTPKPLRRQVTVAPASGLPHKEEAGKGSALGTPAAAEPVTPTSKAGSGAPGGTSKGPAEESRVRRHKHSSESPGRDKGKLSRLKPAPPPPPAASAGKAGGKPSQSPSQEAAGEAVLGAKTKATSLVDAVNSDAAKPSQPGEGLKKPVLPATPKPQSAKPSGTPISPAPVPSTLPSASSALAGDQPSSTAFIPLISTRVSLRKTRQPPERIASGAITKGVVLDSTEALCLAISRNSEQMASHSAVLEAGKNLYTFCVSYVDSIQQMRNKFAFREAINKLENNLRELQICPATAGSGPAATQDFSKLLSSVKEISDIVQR
Protocol: as §1

Cdk-2/cyclin E = molecular target: T2, Cdk-2/cyclin E (Homo sapiens, UniProt P24941); assay: Recombinant kinase radioassay, Cdk-2/cyclin E; assay type: biochemical; details: ATP 15 µM, at least three independent experiments, range 0.01–100 µM
T2 construct: made in house
Protocol: as §1

Ramos = assay: Cytotoxicity assay (resazurin), Ramos; assay type: cell-based; details: Homo sapiens, 72 h, three independent experiments, range 0.1 to 25 µM
Protocol: as §2

K562 = assay: Cytotoxicity assay (resazurin), K562; assay type: cell-based; details: Homo sapiens, 72 h, three independent experiments, range 0.1 to 25 µM
Protocol: as §2

MV4-11 = assay: Cytotoxicity assay (resazurin), MV4-11; assay type: cell-based; details: Homo sapiens, 72 h, three independent experiments, range 0.1 to 25 µM
Protocol: as §2

FLT3-ITD = molecular target: T3, FLT3-ITD (Homo sapiens, UniProt P36888, ITD); assay: Recombinant kinase radioassay, FLT3-ITD; assay type: biochemical
T3 sequence (P36888 27-993): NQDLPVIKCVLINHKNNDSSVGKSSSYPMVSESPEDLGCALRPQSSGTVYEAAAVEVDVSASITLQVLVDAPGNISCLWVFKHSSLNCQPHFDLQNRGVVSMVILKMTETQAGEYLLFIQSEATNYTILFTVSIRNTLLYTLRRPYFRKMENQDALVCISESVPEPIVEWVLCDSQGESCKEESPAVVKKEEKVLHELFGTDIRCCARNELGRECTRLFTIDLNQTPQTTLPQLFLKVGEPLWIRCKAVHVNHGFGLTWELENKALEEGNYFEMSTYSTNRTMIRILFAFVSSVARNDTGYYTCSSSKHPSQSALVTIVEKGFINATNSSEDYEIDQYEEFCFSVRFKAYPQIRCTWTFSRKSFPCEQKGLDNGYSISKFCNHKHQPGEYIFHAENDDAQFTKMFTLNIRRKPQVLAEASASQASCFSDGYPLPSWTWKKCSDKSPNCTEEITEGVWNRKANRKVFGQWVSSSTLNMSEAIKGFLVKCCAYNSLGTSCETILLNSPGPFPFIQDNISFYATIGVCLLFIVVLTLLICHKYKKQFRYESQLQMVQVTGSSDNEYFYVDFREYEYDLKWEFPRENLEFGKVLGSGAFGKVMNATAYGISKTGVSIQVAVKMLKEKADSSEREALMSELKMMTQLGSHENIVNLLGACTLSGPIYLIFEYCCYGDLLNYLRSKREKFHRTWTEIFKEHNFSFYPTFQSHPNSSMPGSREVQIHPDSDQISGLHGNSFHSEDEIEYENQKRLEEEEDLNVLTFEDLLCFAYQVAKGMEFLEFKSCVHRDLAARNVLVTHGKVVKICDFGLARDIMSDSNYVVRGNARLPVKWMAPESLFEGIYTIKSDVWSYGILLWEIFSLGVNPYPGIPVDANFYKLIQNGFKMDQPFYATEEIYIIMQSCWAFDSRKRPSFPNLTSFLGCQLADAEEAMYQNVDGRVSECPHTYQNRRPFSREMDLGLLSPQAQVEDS
Protocol: as §1

[1] = recombinant kinase, radioassay, ATP 15 µM, at least three independent experiments, range 0.01–100 µM, read-out: IC50 BTK
[2] = recombinant kinase, radioassay, at least three independent experiments, range 0.01–100 µM, read-out: IC50 FLT3-ITD
[3] = -log IC50 in molar concentration, Table S3, read-out: Experimental pIC50, CoMFA BTK (converted)
[4] = -log IC50 in molar concentration, Table S3, read-out: Experimental pIC50, CoMFA FLT3 (converted)

Row | IC50 (BTK; [1]) | IC50 (Bcr-Abl1) [nM] | IC50 (Cdk-2/cyclin E) [nM] | IC50 (FLT3-ITD; [2]) [nM] | melting point [°C] | IC50 (BTK; [3]) [nM] | IC50 (FLT3-ITD; [4]) [nM] | SMILES | GI50 (CEM) [nM] | GI50 (HL-60) [nM] | GI50 (Ramos) [nM] | GI50 (K562) [nM] | GI50 (MV4-11) [nM]
1 | < 580 nM and 460 nM | 34000 ± 1630 | 47300 ± 31600 | 2740 |  |  |  | CCCCCCn1cnc2c(Nc3ccc(F)c(F)c3)nc(Nc3ccc(N4CCN(C)CC4)cc3)nc21 [Compound 5i, N^6-(3,4-Difluorophenyl)-9-hexyl-N^2-(4-(4-methylpiperazin-1-yl)phenyl)-9H-purine-2,6-diamine] | > 25000 | 3910 ± 70 | > 25000 | > 25000 | 3860 ± 1080
2 | < 580 nM and 420 nM | 1230 ± 20 | 31100 ± 2910 | 460 | 138.5 to 141.3 |  |  | CCCCCn1cnc2c(Nc3ccccc3)nc(Nc3ccc(N4CCN(C)CC4)cc3)nc21 [Compound 5d, N^2-(4-(4-Methylpiperazin-1-yl)phenyl)-9-pentyl-N^6-phenyl-9H-purine-2,6-diamine] | 19100 ± 3390 | 3980 ± 1060 | 13800 ± 3130 | 6700 ± 2480 | 1280 ± 380
3 |  |  |  |  |  | 912 | 367 | Clc1nc(Cl)c2ccn(CC3CC3)c2n1 [Compound 10] |  |  |  |  | 
4 | 1360 ± 160 nM | 110 ± 10 | 5620 ± 520 | 1250 | 165 to 166 |  |  | CN1CCN(c2ccc(Nc3nc(Nc4cccc([N+](=O)[O-])c4)c4ncn(CC5CC5)c4n3)cc2)CC1 [Compound 4g, 9-(Cyclopropylmethyl)-N^2-(4-(4-methylpiperazin-1-yl)phenyl)-N^6-(3-nitrophenyl)-9H-purine-2,6-diamine] | 11400 ± 3930 | 8510 ± 1790 | 4870 ± 10 | 2930 ± 590 | 1980 ± 460
5 | 1890 ± 170 nM | 2280 ± 800 | 62500 ± 15000 | 790 |  |  |  | CC(C)CCn1cnc2c(Nc3ccc(F)c(F)c3)nc(Nc3ccc(N4CCN(C)CC4)cc3)nc21 [Compound 5c, N^6-(3,4-Difluorophenyl)-9-isopentyl-N^2-(4-(4-methylpiperazin-1-yl)phenyl)-9H-purine-2,6-diamine] | 16800 ± 3340 | 1590 ± 470 | 8870 ± 940 | 9400 ± 780 | 1430 ± 560
6 | 14700 ± 1480 nM | 4190 ± 830 | 14000 ± 2330 |  | 149 to 152 |  |  | CN1CCN(c2ccc(Nc3nc(Nc4ccccc4F)c4ncn(CC5CC5)c4n3)cc2)CC1 [Compound 4a, 9-(Cyclopropylmethyl)-N^6-(2-fluorophenyl)-N^2-(4-(4-methylpiperazin-1-yl)phenyl)-9H-purine-2,6-diamine] | 17100 ± 400 | 1820 ± 350 | 15600 ± 880 | 21300 ± 630 | 6470 ± 1820
7 |  |  |  |  |  | 938 | 534 | Clc1nc(Cl)c2cc[nH]c2n1 [Compound 9] |  |  |  |  | 
8 | 1280 ± 180 nM | 120 ± 30 | 20000 ± 2070 | 1120 | 152 to 153 |  |  | CN1CCN(c2ccc(Nc3nc(Nc4cccc(Cl)c4)c4ncn(CC5CC5)c4n3)cc2)CC1 [Compound 4b, N^6-(3-Chlorophenyl)-9-(cyclopropylmethyl)-N^2-(4-(4-methylpiperazin-1-yl)phenyl)-9H-purine-2,6-diamine] | 19000 ± 1070 | 1930 ± 1050 | 10600 ± 3080 | 1990 ± 820 | 1940 ± 160
9 | 930 ± 140 nM | 1360 ± 500 | 20800 ± 3180 | 1020 |  |  |  | CCCCCn1cnc2c(Nc3ccc(F)c(F)c3)nc(Nc3ccc(N4CCN(C)CC4)cc3)nc21 [Compound 5f, N^6-(3,4-Difluorophenyl)-N^2-(4-(4-methylpiperazin-1-yl)phenyl)-9-pentyl-9H-purine-2,6-diamine] | > 25000 | 3610 ± 1020 | > 25000 | > 25000 | 1610 ± 630
10 | 2220 ± 960 nM | 1780 ± 200 | 22100 ± 380 | 230 | 153.1 to 155.2 |  |  | CC(C)CCn1cnc2c(Nc3ccccc3)nc(Nc3ccc(N4CCN(C)CC4)cc3)nc21 [Compound 5a, 9-Isopentyl-N^2-(4-(4-methylpiperazin-1-yl)phenyl)-N^6-phenyl-9H-purine-2,6-diamine] | 16400 ± 2410 | 1520 ± 610 | 10100 ± 2980 | 8930 ± 5520 | 730 ± 250
11 | 1160 ± 180 nM | 40 ± 10 | > 50000 | 1160 |  |  |  | CCOC(=O)c1ccc(Nc2nc(Nc3ccc(N4CCN(C)CC4)cc3)nc3c2ncn3CC2CC2)cc1 [Compound 4k, Ethyl-4-((9-(cyclopropylmethyl)-2-((4-(4-methylpiperazin-1-yl)phenyl)amino)-9H-purin-6-yl)amino)benzoate] | 13900 ± 1120 | 1930 ± 170 | 12300 ± 1580 | 2700 ± 1310 | 2430 ± 590
12 | 580 ± 330 nM | 84500 ± 5900 | 32200 ± 1330 | > 20000 |  |  |  | CCCCCCCCn1cnc2c(Nc3ccc(F)c(F)c3)nc(Nc3ccc(N4CCN(C)CC4)cc3)nc21 [Compound 5l, N^6-(3,4-Difluorophenyl)-N^2-(4-(4-methylpiperazin-1-yl)phenyl)-9-octyl-9H-purine-2,6-diamine] | > 25000 | 1510 ± 1490 | 18800 ± 2110 | 11800 ± 2190 | 16300 ± 4990
13 | 1720 ± 190 nM |  |  | 1600 | 150 to 151 |  |  | CN1CCN(C(=O)c2ccc(Nc3nc(Nc4cccc(F)c4)c4ncn(CC5CC5)c4n3)cc2)CC1 [Compound 8b, (4-((9-(Cyclopropylmethyl)-6-((3-fluorophenyl)amino)-9H-purin-2-yl)amino)phenyl)(4-methylpiperazin-1-yl)methanone] | 20200 ± 3730 | 1080 ± 100 | 7070 ± 320 | 4910 ± 10 | 1480 ± 540
14 | 1430 ± 290 nM | 70 ± 10 | 23600 ± 1150 | 930 |  |  |  | CN1CCN(c2ccc(Nc3nc(Nc4cccc(C#N)c4)c4ncn(CC5CC5)c4n3)cc2)CC1 [Compound 4f, 3-((9-(Cyclopropylmethyl)-2-((4-(4-methylpiperazin-1-yl)phenyl)amino)-9H-purin-6-yl)amino)benzonitrile] |  | 1560 ± 880 | 5860 ± 3640 | 3680 ± 780 | 1050 ± 100
15 |  |  |  |  |  | 4120 | 2320 | O=C(Cl)c1ccc([N+](=O)[O-])cc1 [Compound 6] |  |  |  |  | 
16 |  |  |  |  |  | 14700 | 19400 | Clc1nc(Cl)c2[nH]cnc2n1 [Compound 1] |  |  |  |  | 
17 |  |  |  |  |  | 1160 | 1160 | Clc1nc(Nc2ccccc2)c2ccn(CC3CC3)c2n1 [Compound 11] |  |  |  |  | 
18 |  |  |  |  |  | 1360 | 1250 | CN1CCN(C(=O)c2ccc(N)cc2)CC1 [Compound 7] |  |  |  |  | 
